Experimental data published in patent US20230398130A1, “METHODS AND COMPOSITIONS FOR DIFFERENTIATING STEM CELLS” (Massachusetts Institute of Technology, priority 2020, published 2023).

Key:
ISC-enriched organoids [1] = test: Primary screen, 384-well 2.5-D organoid differentiation (ENR+CD, 6 days, Target Selective Inhibitor Library, vs whole-plate median): ATP (CellTiter-Glo 3D, CTG); conditions: primary screen; for Dose.FC.CTG (log 2 fold change): vs plate median
ISC-enriched organoids [2] = test: Primary screen, 384-well 2.5-D organoid differentiation (ENR+CD, 6 days): basal lysozyme secretion (LYZ.NS); assay type: cell-based, murine; conditions: primary screen; for Dose.FC.LYZ.NS (log 2 fold change): vs plate median
Description: (§1) High-throughput screening.

ISC-enriched organoids [3] = test: Primary screen, 384-well 2.5-D organoid differentiation (ENR+CD, 6 days): carbachol-induced lysozyme secretion (LYZ.S); assay type: cell-based, murine; conditions: primary screen, vs plate median
Description: as §1

Structure (SMILES)	Z.CTG (standard z score) (ISC-enriched organoids [1]; Dose 0.08 uM)	Dose.FC.CTG (log 2 fold change) (ISC-enriched organoids [1]; Dose 0.08 uM)	Z.CTG (standard z score) (ISC-enriched organoids [1]; Dose 0.40 uM)	Dose.FC.CTG (log 2 fold change) (ISC-enriched organoids [1]; Dose 0.40 uM)	Z.CTG (standard z score) (ISC-enriched organoids [1]; Dose 2.00 uM)	Dose.FC.CTG (log 2 fold change) (ISC-enriched organoids [1]; Dose 2.00 uM)	Z.CTG (standard z score) (ISC-enriched organoids [1]; Dose 10.00 uM)	Dose.FC.CTG (log 2 fold change) (ISC-enriched organoids [1]; Dose 10.00 uM)	Z.LYZ.NS (standard z score) (ISC-enriched organoids [2]; Dose 0.08 uM)	Dose.FC.LYZ.NS (log 2 fold change) (ISC-enriched organoids [2]; Dose 0.08 uM)	Z.LYZ.NS (standard z score) (ISC-enriched organoids [2]; Dose 0.40 uM)	Dose.FC.LYZ.NS (log 2 fold change) (ISC-enriched organoids [2]; Dose 0.40 uM)	Z.LYZ.NS (standard z score) (ISC-enriched organoids [2]; Dose 2.00 uM)	Dose.FC.LYZ.NS (log 2 fold change) (ISC-enriched organoids [2]; Dose 2.00 uM)	Z.LYZ.NS (standard z score) (ISC-enriched organoids [2]; Dose 10.00 uM)	Dose.FC.LYZ.NS (log 2 fold change) (ISC-enriched organoids [2]; Dose 10.00 uM)	Dose.FC.LYZ.S (log 2 fold change) (ISC-enriched organoids [3]; Dose 0.08 uM)	Dose.FC.LYZ.S (log 2 fold change) (ISC-enriched organoids [3]; Dose 0.40 uM)	Dose.FC.LYZ.S (log 2 fold change) (ISC-enriched organoids [3]; Dose 2.00 uM)	Dose.FC.LYZ.S (log 2 fold change) (ISC-enriched organoids [3]; Dose 10.00 uM)
Cc1nnc(C(=O)NC(C)(C)c2nc(C(=O)NCc3ccc(F)cc3)c(O)c(=O)n2C)o1 [Raltegravir (MK-0518)]	0.258	0.108	0.224	0.094	0.471	0.197	0.407	0.170	1.627	0.187	0.302	0.035	0.254	0.029	0.366	0.042	0.137	0.037	0.122	0.183
CO[C@H]1C[C@@H]2CC[C@@H](C)[C@@](O)(O2)C(=O)C(=O)N2CCCC[C@H]2C(=O)O[C@H]([C@H](C)C[C@@H]2CC[C@@H](OP(C)(C)=O)[C@H](OC)C2)CC(=O)[C@H](C)/C=C(\C)[C@@H](O)[C@@H](OC)C(=O)[C@H](C)C[C@H](C)/C=C/C=C/C=C/1C [Ridaforolimus (Deforolimus, MK-8669)]	1.011	0.423	0.157	0.066	0.659	0.276	0.505	0.211	0.041	0.005	1.012	0.116	0.646	0.074	0.237	0.027	0.050	0.069	0.019	0.039
COc1cc(OC)c(/C=C/S(=O)(=O)Cc2ccc(OC)c(NCC(=O)O)c2)c(OC)c1 [Rigosertib (ON-01910)]	−2.162	−0.905	−3.069	−1.285	−3.984	−1.668	−2.022	−0.847	−2.105	−0.242	−1.831	−0.210	−2.306	−0.265	−2.107	−0.242	−0.309	−0.355	−0.340	−0.330
Cc1nn(-c2ccccc2)c(C)c1/C=N/N1CCN(Cc2ccccc2)CC1 [SANT-1]	0.736	0.308	0.186	0.078	0.327	0.137	−0.100	−0.042	0.485	0.056	0.002	0.000	1.528	0.175	−0.430	−0.049	0.112	0.024	0.101	−0.120
CCn1c(N)c(C(=O)NC)c(=O)c2ccc(C#C[C@@](C)(O)COC)nc21 [SAR131675]	0.419	0.175	−0.201	−0.084	0.169	0.071	0.149	0.062	0.483	0.055	0.774	0.089	0.181	0.021	−0.766	−0.088	0.148	0.096	0.026	0.000
C[S+]([O-])c1ccc(-c2nc(-c3ccc(F)cc3)c(-c3ccncc3)[nH]2)cc1 (stereo not shown) [SB203580]	0.479	0.201	0.356	0.149	0.567	0.237	0.435	0.182	0.805	0.092	1.109	0.127	0.453	0.052	0.199	0.023	0.148	0.098	0.077	0.069
Cc1cc(NC(=O)Nc2ccc(N(C)C)cc2)c2cc(F)cc(F)c2n1 [SB408124]	0.978	0.410	0.799	0.334	0.869	0.364	0.216	0.091	1.494	0.172	1.168	0.134	0.730	0.084	−0.607	−0.070	0.198	0.193	0.082	−0.148
O=C1NC(=O)C(c2ccccc2[N+](=O)[O-])=C1Nc1ccc(O)c(Cl)c1 [SB415286]	0.527	0.221	−0.011	−0.004	−0.231	−0.097	0.293	0.123	1.262	0.145	0.101	0.012	1.024	0.118	−0.136	−0.016	0.159	−0.008	−0.053	−0.042
